The test has as its target T1, iNAP1.
T1 construct: gene rex; 6xHis N-terminal, E. coli BL21(DE3) pLys
Description: sensor fluorescence titration, excitation […] nm, emission […] nm. The format is binding. The note with it: 22 °C, in vitro, pseudocytosol medium pH 7.5, 0.5 μM sensor.

This passage reports Kd results from publication PMC7320160, “In planta study of photosynthesis and photorespiration using NADPH and NADH/NAD^+ fluorescent protein sensors” (Nature Communications, 2020).

As usually defined, the Kd is the concentration at which binding is half-saturated. A low value points to a tighter complex. For the compound `NC(=O)C1=CN([C@@H]2O[C@H](COP(=O)(O)OP(=O)(O)OC[C@H]3O[C@@H](n4cnc5c(N)ncnc54)[C@H](OP(=O)(O)O)[C@@H]3O)[C@@H](O)[C@H]2O)C=CC1` [NADPH], binding was put at a Kd of 300 nM.
